PubChem BioAssay AID1963854 (Molecular Pharmacology Branch, DTP, NCI, 2024)
pIC50: −log10 of the molar value.

Tested on: 186277-243-T-J2-PDC complex spheroid viability
Test: Anticancer human tumor 186277-243-T-J2-PDC patient-derived colon adenocarcinoma cell line growth inhibition [POLQ]
Settings: for pIC50: curve of first compound; for viability, T/C: stronger effect = lower value
Description: Multicellular complex tumor spheroid response to Polymerase (POL) inhibitors (novobiocin, ART-558, RP6685) in combination with a variety of drugs and investigational agents in selected tumor cell lines
The POL inhibitors (novobiocin, ART-558, and RP6685) were evaluated both individually and in combination with standard of care and investigational anticancer small molecules within a complex spheroid model of solid tumors. . Complex spheroids include a stromal component modeled by human endothelial cells (HUVEC) and fibroblasts modeled by human mesenchymal stem cells (MSCs). The concentration ranges selected for each drug and investigational agent were based upon clinically achievable concentrations if the clinical Cmax of the agent was known.
Compounds. The drugs and investigational agents: novobiocin (NSC847541), ART-558 (NSC835418), RP-6685 (NSC848927), peposertib (NSC802822), ceralasertib (NSC780249), elimusertib (NSC800525), camonsertib (NSC841442), AZD-1390 (NSC803789), olaparib (NSC753686), talazoparib (NSC767125), rucaparib (NSC756644), sotorasib (NSC818433), MRTX-1133 (NSC836407), SN-38 (NSC673596), topotecan (NSC609699), epotoside (NSC141540), doxorubicin (NSC123127), gemcitabine (NSC613327), 5-fluorouracil (NSC19893), paclitaxel (NSC125973), vemurafenib (NSC761431), MSA-2 (NSC828583), SN-011 (NSC837082), adavosertib (NSC754352), prexasertib (NSC758257), carboplatin (NSC241240) and oxaliplatin (NSC266046), were obtained from the National Cancer Institute (NCI) Developmental Therapeutics Program Chemical Repository (21). The FDA-approved anticancer drug set is available from the Developmental Therapeutics Program at https://dtp.cancer.gov/organization/dscb/obtaining/. […] The stock solutions were prepared in dimethyl sulfoxide (DMSO, Sigma-Aldrich, St. Louis, MO, cat. D2650), except for the platinum compounds which were prepared in saline (Quality Biological, Gaithersburg, MD, cat. 114-055-101), at 800-fold the tested concentration and stored at -70 degrees C prior to their use. All drugs and investigational agents were tested over a range starting from a high concentration at or near the clinical Cmax and decreasing in half-log increments. If the clinical Cmax for an agent had not been determined, the highest concentration tested was 10 microM, except for SN-38, which was tested at a high concentration of 1 microM.
Cell Culture. All cells were maintained in an incubator at 37 degrees C and 5% CO2 with 95% humidity. The PDC lines were cultured according to standard operating procedures established by the NCI PDMR (https://pdmr.cancer.gov). Table 3 of the manuscript, lists the cell lines along with the number of the three cell types plated to form the mct-spheroids and media for tumor cell growth. After thawing, all PDC lines, except 997537-175-T-J1-PDC and 415267-285-R-J2-PDC, were cultured in Matrigel-coated flasks prepared with a working solution of 1X Ham's F-12 nutrient mix, without supplementation (Thermo Fisher Scientific, cat. 11765054), 100 U/mL penicillin-streptomycin (Thermo Fisher Scientific, cat. 15140122), and 2.5% Matrigel (Corning Inc., Corning, NY, cat. 354248) for the first three passages. The two PDC lines 997537-175-T-J1-PDC and 415267-285-R-J2-PDC were cultured on uncoated flasks. The 857933-349-R-J2-PDC line was cultured in 6C/Colon 1B media containing advanced DMEM/F-12 (Thermo Fisher Scientific, cat. 12634028), 10 mM HEPES (Thermo Fisher Scientific, cat. 15630080), 1X GlutaMAX supplement (Thermo Fisher Scientific, cat. 35050061), 0.1 mg/mL primocin (InvivoGen, San Diego, CA, cat. ant-pm-2), 10% defined fetal bovine serum, heat inactivated (HyClone Laboratories Inc., Logan, UT, cat. SH30070.03HI), 50% L-WRN conditioned media (ATCC, cat. CRL-3276), 1.25 mM N-Acetyl-L-cysteine (Sigma-Aldrich, cat. A9165), 10 mM nicotinamide (Sigma-Aldrich, cat. N0636), 1X B-27 supplement (Thermo Fisher Scientific, cat. 17504044), 1X N-2 supplement (Thermo Fisher Scientific, cat. […]
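Further: spheroids exposed to compounds for seven days.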
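Wherever viability, T/C is given: 100% = DMSO vehicle control viability.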

SMILES: C=CCn1c(=O)c2cnc(Nc3ccc(N4CCN(C)CC4)cc3)nc2n1-c1cccc(C(C)(C)O)n1 + Nc1ccc(C#CCN(C(=O)Cc2ncc(C(F)(F)F)cc2C(F)(F)F)c2ccc(F)cc2)nn1
- pIC50 (second compound 0.0316 µM): 6.67
- pIC50 (second compound 0.1 µM): 6.65
- pIC50 (second compound 0.316 µM): 6.64
- pIC50 (second compound 1 µM): 6.67
- pIC50 (second compound 3.16 µM): 6.68
- pIC50 (second compound 10 µM): 6.69
- viability, T/C (second compound 0.0316 µM, first compound 0.00316 µM): 95%
- viability, T/C (second compound 0.0316 µM, first compound 0.01 µM): 91.2%
- viability, T/C (second compound 0.0316 µM, first compound 0.0316 µM): 86.9%
- viability, T/C (second compound 0.0316 µM, first compound 0.1 µM): 87.5%
- viability, T/C (second compound 0.0316 µM, first compound 0.316 µM): 30.1%
- viability, T/C (second compound 0.0316 µM, first compound 1 µM): 15.7%
- viability, T/C (second compound 0.1 µM, first compound 0.00316 µM): 94.8%
- viability, T/C (second compound 0.1 µM, first compound 0.01 µM): 107%
- viability, T/C (second compound 0.1 µM, first compound 0.0316 µM): 109%
- viability, T/C (second compound 0.1 µM, first compound 0.1 µM): 99.5%
- viability, T/C (second compound 0.1 µM, first compound 0.316 µM): 28.8%
- viability, T/C (second compound 0.1 µM, first compound 1 µM): 15.1%
- viability, T/C (second compound 0.316 µM, first compound 0.00316 µM): 88.5%
- viability, T/C (second compound 0.316 µM, first compound 0.01 µM): 105%
- viability, T/C (second compound 0.316 µM, first compound 0.0316 µM): 93%
- viability, T/C (second compound 0.316 µM, first compound 0.1 µM): 101%
- viability, T/C (second compound 0.316 µM, first compound 0.316 µM): 31.8%
- viability, T/C (second compound 0.316 µM, first compound 1 µM): 14.4%
- viability, T/C (second compound 1 µM, first compound 0.00316 µM): 89.5%
- viability, T/C (second compound 1 µM, first compound 0.01 µM): 101%
- viability, T/C (second compound 1 µM, first compound 0.0316 µM): 101%
- viability, T/C (second compound 1 µM, first compound 0.1 µM): 93%
- viability, T/C (second compound 1 µM, first compound 0.316 µM): 28%
- viability, T/C (second compound 1 µM, first compound 1 µM): 12%
- viability, T/C (second compound 3.16 µM, first compound 0.00316 µM): 109%
- viability, T/C (second compound 3.16 µM, first compound 0.01 µM): 97.5%
- viability, T/C (second compound 3.16 µM, first compound 0.0316 µM): 110%
- viability, T/C (second compound 3.16 µM, first compound 0.1 µM): 98.2%
- viability, T/C (second compound 3.16 µM, first compound 0.316 µM): 23.7%
- viability, T/C (second compound 3.16 µM, first compound 1 µM): 13.3%
- viability, T/C (second compound 10 µM, first compound 0.00316 µM): 90.9%
- viability, T/C (second compound 10 µM, first compound 0.01 µM): 98.1%
- viability, T/C (second compound 10 µM, first compound 0.0316 µM): 100%
- viability, T/C (second compound 10 µM, first compound 0.1 µM): 96.5%
- viability, T/C (second compound 10 µM, first compound 0.316 µM): 21.3%
- viability, T/C (second compound 10 µM, first compound 1 µM): 11.2%
